According to US20250074897A1, “PYRIDAZINONES AS PARP7 INHIBITORS” (Ribon Therapeutics, Inc., priority 2019, published 2025):

What follows are compounds tested against T1, PARP7 (TIPARP) (Homo sapiens, UniProt Q7Z3E1) (assay: Enzymatic assay for inhibition of PARP7: TR-FRET displacement of biotinylated Probe A from the TIPARP active site). Conditions: 6 nM TIPARP, 2 nM Probe A, 25° C., 30 min incubation with test compound.
T1 sequence (Q7Z3E1 1-657): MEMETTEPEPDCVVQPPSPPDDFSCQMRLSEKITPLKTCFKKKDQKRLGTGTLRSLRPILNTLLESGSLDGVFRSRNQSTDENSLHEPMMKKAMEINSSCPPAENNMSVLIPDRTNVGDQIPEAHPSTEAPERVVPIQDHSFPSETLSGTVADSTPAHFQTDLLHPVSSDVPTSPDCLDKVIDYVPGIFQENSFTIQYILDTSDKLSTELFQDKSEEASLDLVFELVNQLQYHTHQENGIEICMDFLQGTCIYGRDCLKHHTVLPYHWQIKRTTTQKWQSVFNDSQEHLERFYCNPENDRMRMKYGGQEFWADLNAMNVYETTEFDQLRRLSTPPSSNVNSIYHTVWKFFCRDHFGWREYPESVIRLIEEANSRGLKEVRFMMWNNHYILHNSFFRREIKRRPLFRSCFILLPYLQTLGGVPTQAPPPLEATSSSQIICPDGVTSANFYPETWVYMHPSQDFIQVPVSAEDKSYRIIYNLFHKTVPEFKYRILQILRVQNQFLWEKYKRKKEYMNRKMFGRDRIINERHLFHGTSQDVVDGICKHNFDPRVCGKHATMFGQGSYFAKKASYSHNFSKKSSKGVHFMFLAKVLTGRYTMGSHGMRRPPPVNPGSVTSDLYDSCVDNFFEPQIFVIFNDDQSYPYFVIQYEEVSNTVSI
Assay type: binding
Protocol: Enzymatic Assay for Inhibition of PARP7
Displacement of Probe A, a biotinylated probe binding to the TIPARP active site, was measured using a time-resolved fluorescence energy transfer (TR-FRET) assay. 20 nL of a dose response curve of each test compound was spotted in black 384-well polystyrene proxiplates (Perkin Elmer) using a Mosquito (TTP Labtech). Reactions were performed in a 8 μL volume by adding 6 μL of TIPARP and Probe A in assay buffer (20 mM HEPES pH=8, 100 mM NaCl, 0.1% bovine serum albumin, 2 mM DTT and 0.002% Tween20), incubating with test compound at 25° C. for 30 min, then adding 2 μL of ULight-anti 6xHis and LANCE Eu-W1024 labeled streptavidin (Perkin Elmer). The final concentrations of TIPARP and Probe A were 6 nM and 2 nM, respectively. The final concentration of ULight-anti 6xHis and LANCE Eu-W1024 labeled streptavidin were 4 nM and 0.25 nM, respectively. Reactions were incubated at 25° C. for an additional 30 min, then read on an Envision platereader equipped with a LANCE/DELFIA top mirror (Perkin Elmer) using excitation of 320 nm and emission of 615 nm and […] with a 90 μs delay. The ratio of the 665/615 nm emission were calculated for each well to determine the amount of complex of TIPARP and Probe A in each well. Control wells containing a negative control of 0.25% DMSO vehicle or a positive control of 100 μM 5-(5-(piperidin-4-yloxy)isoindolin-2-yl)-4-(trifluoromethyl)pyridazin-3(2H)-one were used to calculate the % inhibition as described below:
where TRFempd is the TR-FRET ratio from the compound treated well, TRFmin is the TR-FRET ratio from the 5-(5-(piperidin-4-yloxy)isoindolin-2-yl)-4-(trifluoromethyl)pyridazin-3(2H)-one-treated positive control well and TRFmax is the TR-FRET ratio from the DMSO-treated negative control well.
The % inhibition values were plotted as a function of compound concentration and the following 4-parameter fit was applied to derive the IC50 values:
where top and bottom are normally allowed to float, but may be fixed at 100 or 0 respectively in a 3-parameter fit. The Hill Coefficient is normally allowed to float but may also be fixed at 1 in a 3-parameter fit. Y is the % inhibition and X is the compound concentration.

IC50, < 100 nM:
C[C@@H](COC[C@@H](O)C(=O)N1CCN(c2ncc(C(F)(F)F)s2)CC1)Nc1cn[nH]c(=O)c1C(F)(F)F [Example 3A, 5-((S)-1-((R)-2-hydroxy-3-oxo-3-(4-(5-(trifluoromethyl)thiazol-2-yl)piperazin-1-yl)propoxy)propan-2-ylamino)-4-(trifluoromethyl)pyridazin-3(2H)-one]
C[C@@H](COC[C@H](O)C(=O)N1CCN(c2ncc(C(F)(F)F)s2)CC1)Nc1cn[nH]c(=O)c1C(F)(F)F [Example 3B, 5-((S)-1-((S)-2-hydroxy-3-oxo-3-(4-(5-(trifluoromethyl)thiazol-2-yl)piperazin-1-yl)propoxy)propan-2-ylamino)-4-(trifluoromethyl)pyridazin-3(2H)-one]
C[C@@H](COC[C@@H](O)C(=O)N1CCN(c2ncc(C(F)F)cn2)CC1)Nc1cn[nH]c(=O)c1C(F)(F)F [Example 4A, 5-(((S)-1-((R)-3-(4-(5-(difluoromethyl)pyrimidin-2-yl)piperazin-1-yl)-2-hydroxy-3-oxopropoxy)propan-2-yl)amino)-4-(trifluoromethyl)pyridazin-3(2H)-one]
C[C@@H](COC[C@H](O)C(=O)N1CCN(c2ncc(C(F)F)cn2)CC1)Nc1cn[nH]c(=O)c1C(F)(F)F [Example 4B, 5-(((S)-1-((S)-3-(4-(5-(difluoromethyl)pyrimidin-2-yl)piperazin-1-yl)-2-hydroxy-3-oxopropoxy)propan-2-yl)amino)-4-(trifluoromethyl)pyridazin-3(2H)-one]
C[C@@H](COCC(C)(O)C(=O)N1CCN(c2ncc(C(F)(F)F)cn2)CC1)Nc1cn[nH]c(=O)c1C(F)(F)F (stereo partly drawn) [Example 5, 5-(((2S)-1-(2-hydroxy-2-methyl-3-oxo-3-(4-(5-(trifluoromethyl)pyrimidin-2-yl)piperazin-1-yl)propoxy)propan-2-yl)amino)-4-(trifluoromethyl)pyridazin-3(2H)-one]
C[C@@H](COC[C@@H](O)C(=O)N1CCN(c2cnc(C(F)(F)F)cn2)CC1)Oc1cn[nH]c(=O)c1C(F)(F)F [Example 8A, 5-(((S)-1-((R)-2-hydroxy-3-oxo-3-(4-(5-(trifluoromethyl)pyrazin-2-yl)piperazin-1-yl)propoxy)propan-2-yl)oxy)-4-(trifluoromethyl)pyridazin-3(2H)-one]
C[C@@H](COC[C@H](O)C(=O)N1CCN(c2cnc(C(F)(F)F)cn2)CC1)Oc1cn[nH]c(=O)c1C(F)(F)F [Example 8B, 5-(((S)-1-((S)-2-hydroxy-3-oxo-3-(4-(5-(trifluoromethyl)pyrazin-2-yl)piperazin-1-yl)propoxy)propan-2-yl)oxy)-4-(trifluoromethyl)pyridazin-3(2H)-one]
C[C@@H](COC[C@@H](O)C(=O)N1CCN(c2ncc(Cl)cn2)CC1)Oc1cn[nH]c(=O)c1C(F)(F)F [Example 9A, 5-(((S)-1-((R)-3-(4-(5-chloropyrimidin-2-yl)piperazin-1-yl)-2-hydroxy-3-oxopropoxy)propan-2-yl)oxy)-4-(trifluoromethyl)pyridazin-3(2H)-one]
C[C@@H](COC[C@@H](O)C(=O)N1CCN(c2ccc(C#N)cn2)CC1)Oc1cn[nH]c(=O)c1C(F)(F)F [Example 10A, 6-(4-((R)-2-hydroxy-3-((S)-2-((6-oxo-5-(trifluoromethyl)-1,6-dihydropyridazin-4-yl)oxy)propoxy)propanoyl)piperazin-1-yl)nicotinonitrile]
C[C@@H](COC[C@@H](O)C(=O)N1CCN(c2ncc(C(F)F)cn2)CC1)Oc1cn[nH]c(=O)c1C(F)(F)F [Example 11A, 5-(((S)-1-((R)-3-(4-(5-(difluoromethyl)pyrimidin-2-yl)piperazin-1-yl)-2-hydroxy-3-oxopropoxy)propan-2-yl)oxy)-4-(trifluoromethyl)pyridazin-3(2H)-one]
COC[C@@H](COCC(O)C(=O)N1CCN(c2ncc(C(F)(F)F)cn2)CC1)Nc1cn[nH]c(=O)c1C(F)(F)F (stereo partly drawn) [Example 14, 5-(((2S)-1-(2-hydroxy-3-oxo-3-(4-(5-(trifluoromethyl)pyrimidin-2-yl)piperazin-1-yl)propoxy)-3-methoxypropan-2-yl)amino)-4-(trifluoromethyl)pyridazin-3(2H)-one]
CC[C@@H](COCC(O)C(=O)N1CCN(c2ncc(C(F)(F)F)cn2)CC1)Nc1cn[nH]c(=O)c1C(F)(F)F (stereo partly drawn) [Example 15, 5-(((2S)-1-(2-hydroxy-3-oxo-3-(4-(5-(trifluoromethyl)pyrimidin-2-yl)piperazin-1-yl)propoxy)butan-2-yl)amino)-4-(trifluoromethyl)pyridazin-3(2H)-one]
O=C([C@H](O)COC[C@H](COC(F)(F)F)Nc1cn[nH]c(=O)c1C(F)(F)F)N1CCN(c2ncc(C(F)(F)F)cn2)CC1 [Example 16A, 5-(((R)-1-((R)-2-hydroxy-3-oxo-3-(4-(5-(trifluoromethyl)pyrimidin-2-yl)piperazin-1-yl)propoxy)-3-(trifluoromethoxy)propan-2-yl)amino)-4-(trifluoromethyl)pyridazin-3(2H)-one]
O=C([C@@H](O)COC[C@H](COC(F)(F)F)Nc1cn[nH]c(=O)c1C(F)(F)F)N1CCN(c2ncc(C(F)(F)F)cn2)CC1 [Example 16B, 5-(((R)-1-((S)-2-hydroxy-3-oxo-3-(4-(5-(trifluoromethyl)pyrimidin-2-yl)piperazin-1-yl)propoxy)-3-(trifluoromethoxy)propan-2-yl)amino)-4-(trifluoromethyl)pyridazin-3(2H)-one]
O=C(C(O)COC[C@@H]1CCN1c1cn[nH]c(=O)c1C(F)(F)F)N1CCN(c2ncc(C(F)(F)F)cn2)CC1 (stereo partly drawn) [Example 18, 5-((2S)-2-((2-hydroxy-3-oxo-3-(4-(5-(trifluoromethyl)pyrimidin-2-yl)piperazin-1-yl)propoxy)methyl)azetidin-1-yl)-4-(trifluoromethyl)pyridazin-3(2H)-one]
